This is an account of results in US20240140957A1, “BRIDGED COMPOUNDS AS KRAS G12D INHIBITOR AND DEGRADER AND THE USE THEREOF” (BeiGene Switzerland GmbH, priority 2021, published 2024).

Where only a bound is given, the exact number is not on record here.

This assay deals with GDP-loaded KRAS G12D (Homo sapiens, UniProt P01116, G12D). Description: KRAS G12D Probe Displacement Assay. The conditions noted are these: KRAS G12D 0.5 nM, biotinylated probe 2 4 nM; Table 6 letters; read-out: KRAS G12D Probe Displacement Assay IC50 (class). Type of assay: binding.
Sequence of GDP-loaded KRAS G12D (P01116 1-188 isoform P01116-2 G12D): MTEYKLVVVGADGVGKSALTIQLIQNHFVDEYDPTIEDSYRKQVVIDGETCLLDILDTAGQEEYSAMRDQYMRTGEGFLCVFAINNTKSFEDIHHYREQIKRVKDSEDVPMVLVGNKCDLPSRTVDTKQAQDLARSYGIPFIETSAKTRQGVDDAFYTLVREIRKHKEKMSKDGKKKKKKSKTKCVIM

On to `CC(=O)N1CCC(COc2nc(N3CC4CCC(C3)N4)c3cc(Cl)c(-c4nc(N)cc(C)c4C(F)(F)F)c(F)c3n2)C1` (stereo not drawn) [Example E232, 1-(3-(((7-(6-amino-4-methyl-3-(trifluoromethyl)pyridin-2-yl)-4-(3,8-diazabicyclo[3.2.1]octan-3-yl)-6-chloro-8-fluoroquinazolin-2-yl)oxy)methyl)pyrrolidin-1-yl)ethan-1-one], for which the IC50 – broadly, the concentration that gives 50% inhibition – is less than 50 nM.

Turning to `Nc1nc2c(-c3c(C(F)(F)F)cc4c(N5CC6CCC(C5)N6)nc(OCC5CCCOC5)nc4c3F)ccc(F)c2s1` (stereo not drawn) [Example E216, 4-(4-(3,8-diazabicyclo[3.2.1]octan-3-yl)-8-fluoro-2-((tetrahydro-2H-pyran-3-yl)methoxy)-6-(trifluoromethyl)quinazolin-7-yl)-7-fluorobenzo[d]thiazol-2-amine], the IC50 was less than 50 nM.

As for `Nc1cc(Cl)c(C(F)(F)F)c(-c2c(Cl)cc3c(N4C5CCC4CNC5)nc(OC[C@@]45CCCN4C[C@H](F)C5)nc3c2F)n1` [Example E102, 6-(4-(3,8-diazabicyclo[3.2.1]octan-8-yl)-6-chloro-8-fluoro-2-(((2R,7aS)-2-fluorotetrahydro-1H-pyrrolizin-7a(5H)-yl)methoxy)quinazolin-7-yl)-4-chloro-5-(trifluoromethyl)pyridin-2-amine], the IC50 was less than 50 nM.

`Nc1nc2c(-c3c(C(F)(F)F)cc4c(N5CC6CCC(C5)N6)nc(OCC5(CO)CCCCC5)nc4c3F)ccc(F)c2s1` [Example E191, (1-(((7-(2-amino-7-fluorobenzo[d]thiazol-4-yl)-4-(3,8-diazabicyclo[3.2.1]octan-3-yl)-8-fluoro-6-(trifluoromethyl)quinazolin-2-yl)oxy)methyl)cyclohexyl) methanol]: the IC50 was less than 50 nM.

Consider `Nc1nc2c(-c3c(C(F)(F)F)cc4c(N5CC6CCC(C5)N6)nc(OC5CC(O)C5)nc4c3F)ccc(F)c2s1` (stereo not drawn) [Example E177, 3-((7-(2-amino-7-fluorobenzo[d]thiazol-4-yl)-4-(3,8-diazabicyclo [3.2.1]octan-3-yl)-8-fluoro-6-(trifluoromethyl)quinazolin-2-yl)oxy)cyclobutan-1-ol], for which the IC50 was less than 50 nM.

Turning to `Nc1cc(Cl)c(C(F)(F)F)c(-c2c(Cl)cc3c(N4C5CNCC4COC5)nc(OC[C@@]45CCCN4C[C@H](F)C5)nc3c2F)n1` [Example E107, 6-(4-(3-oxa-7,9-diazabicyclo[3.3.1]nonan-9-yl)-6-chloro-8-fluoro-2-(((2R,7aS)-2-fluorotetrahydro-1H-pyrrolizin-7a(5H)-yl)methoxy)quinazolin-7-yl)-4-chloro-5-(trifluoromethyl)pyridin-2-amine], the IC50 is less than 50 nM.

Turning to `Nc1nc2c(-c3c(C(F)(F)F)cc4c(N5CC6CCC(C5)N6)nc(OCC5CCCCO5)nc4c3F)ccc(F)c2s1` (stereo not drawn) [Example E146, 4-(4-(3,8-diazabicyclo[3.2.1]octan-3-yl)-8-fluoro-2-((tetrahydro-2H-pyran-2-yl)methoxy)-6-(trifluoromethyl)quinazolin-7-yl)-7-fluorobenzo[d]thiazol-2-amine], the IC50 was less than 50 nM.

As for `C[C@@H](CN1CCC(F)CC1)Oc1nc(N2CC3CCC(C2)N3)c2cc(Cl)c(-c3ccc(F)c4sc(N)c(C#N)c34)c(F)c2n1` [Example E116, 4-(4-(3,8-diazabicyclo[3.2.1]octan-3-yl)-6-chloro-8-fluoro-2-(((S)-1-(4-fluoropiperidin-1-yl)propan-2-yl)oxy)quinazolin-7-yl)-2-amino-7-fluorobenzo[b]thiophene-3-carbonitrile], the IC50 is less than 50 nM.

On to `CC1(COc2nc(N3CC4CCC(C3)N4)c3cc(C(F)(F)F)c(-c4ccc(F)c5sc(N)nc45)c(F)c3n2)CCOC1` (stereo not drawn) [Example E181, 4-(4-(3,8-diazabicyclo[3.2.1]octan-3-yl)-8-fluoro-2-((3-methyltetrahydrofuran-3-yl)methoxy)-6-(trifluoromethyl)quinazolin-7-yl)-7-fluorobenzo[d]thiazol-2-amine], for which the half-maximal inhibitory concentration (IC50) was less than 50 nM.

Regarding `Nc1nc2c(-c3c(C(F)(F)F)cc4c(N5CC6CCC(C5)N6)nc(OCC5(F)CCOCC5)nc4c3F)ccc(F)c2s1` [Example E218, 4-(4-(3,8-diazabicyclo[3.2.1]octan-3-yl)-8-fluoro-2-((4-fluorotetra hydro-2H-pyran-4-yl)methoxy)-6-(trifluoromethyl)quinazolin-7-yl)-7-fluorobenzo[d]thiazol-2-amine], the IC50 was less than 50 nM.

Take `Cc1cc(N)nc(-c2c(Cl)cc3c(N4CC5CCC(C4)N5)nc(OCC(C)(C)C#N)nc3c2F)c1C(F)(F)F` [Example E194, 3-((7-(6-amino-4-methyl-3-(trifluoromethyl)pyridin-2-yl)-4-(3,8-diazabicyclo[3.2.1]octan-3-yl)-6-chloro-8-fluoroquinazolin-2-yl)oxy)-2,2-dimethylpropanenitrile]: the IC50 is less than 50 nM.

On to `N#Cc1cc(N)nc(-c2c(Cl)cc3c(N4CC5CCC(C4)N5)nc(OC[C@@]45CCCN4C[C@H](F)C5)nc3c2F)c1C(F)(F)F` [Example E109, 2-(4-(3,8-diazabicyclo[3.2.1]octan-3-yl)-6-chloro-8-fluoro-2-(((2R,7aS)-2-fluorotetrahydro-1H-pyrrolizin-7a(5H)-yl)methoxy)quinazolin-7-yl)-6-amino-3-(trifluoromethyl)isonicotinonitrile], for which the 50% inhibitory concentration (IC50) is less than 50 nM.

With `Cc1cc(N)nc(-c2c(Cl)cc3c(N4CC5CCC(C4)N5)nc(OCC(C)(C)CO)nc3c2F)c1C(F)(F)F` [Example E193, 3-((7-(6-amino-4-methyl-3-(trifluoromethyl)pyridin-2-yl)-4-(3,8-diazabicyclo[3.2.1]octan-3-yl)-6-chloro-8-fluoroquinazolin-2-yl)oxy)-2,2-dimethylpropan-1-ol], the IC50 was less than 50 nM.

On to `COC1(COc2nc(N3CC4CCC(C3)N4)c3cc(C(F)(F)F)c(-c4ccc(F)c5sc(N)nc45)c(F)c3n2)CC1` [Example E156], for which the IC50 was less than 50 nM.

As for `Oc1cc(F)c(C(F)(F)F)c(-c2c(F)cc3c(N4CC5CCC(C4)N5)nc(OC[C@@]45CCCN4C[C@H](F)C5)nc3c2F)c1` [Example E110, 3-(4-(3,8-diazabicyclo[3.2.1]octan-3-yl)-6,8-difluoro-2-(((2R,7aS)-2-fluorotetrahydro-1H-pyrrolizin-7a(5H)-yl)methoxy)quinazolin-7-yl)-5-fluoro-4-(trifluoromethyl)phenol], the IC50 is less than 50 nM.

Consider `Cc1cc(N)nc(-c2c(Cl)cc3c(N4CC5CCC(C4)N5)nc(OCC45CCC(CC4)OC5)nc3c2F)c1C(F)(F)F` [Example E229, 6-(2-((2-oxabicyclo[2.2.2]octan-4-yl)methoxy)-4-(3,8-diazabicyclo[3.2.1]octan-3-yl)-6-chloro-8-fluoroquinazolin-7-yl)-4-methyl-5-(trifluoromethyl)pyridin-2-amine], for which the IC50 was less than 50 nM.

For `CC(=O)N1CCCC(COc2nc(N3CC4CCC(C3)N4)c3cc(C(F)(F)F)c(-c4ccc(F)c5sc(N)nc45)c(F)c3n2)C1` (stereo not drawn) [Example E223, 1-(3-(((7-(2-amino-7-fluorobenzo[d]thiazol-4-yl)-4-(3,8-diazabicyclo[3.2.1]octan-3-yl)-8-fluoro-6-(trifluoromethyl)quinazolin-2-yl)oxy)methyl)piperidin-1-yl)ethan-1-one], the IC50 was less than 50 nM.

With `Cc1cc2[nH]ncc2c(-c2c(Cl)cc3c(N4CC5CCC(C4)N5)nc(OC[C@@]45CCCN4C[C@H](F)C5)nc3c2F)c1Cl` [Example E120, 4-(3,8-diazabicyclo[3.2.1]octan-3-yl)-6-chloro-7-(5-chloro-6-methyl-1H-indazol-4-yl)-8-fluoro-2-(((2R,7aS)-2-fluorotetrahydro-1H-pyrrolizin-7a(5H)-yl)methoxy)quinazoline], the IC50 was less than 50 nM.

On to `CC(=O)N1CC(COc2nc(N3CC4CCC(C3)N4)c3cc(C(F)(F)F)c(-c4ccc(F)c5sc(N)nc45)c(F)c3n2)C1` [Example E164, 1-(3-(((7-(2-amino-7-fluorobenzo[d]thiazol-4-yl)-4-(3,8-diazabicyclo[3.2.1]octan-3-yl)-8-fluoro-6-(trifluoromethyl)quinazolin-2-yl)oxy)methyl)azetidin-1-yl)ethan-1-one], for which the IC50 is less than 50 nM.

With `Cc1cc(N)nc(-c2c(SC(F)(F)F)cc3c(N4CC5CCC(C4)N5)nc(OC[C@@]45CCCN4C[C@H](F)C5)nc3c2F)c1C(F)(F)F` [Example E92, 6-(4-(3,8-diazabicyclo[3.2.1]octan-3-yl)-8-fluoro-2-(((2R,7aS)-2-fluorotetrahydro-1H-pyrrolizin-7a(5H)-yl)methoxy)-6-((trifluoromethyl)thio)quinazolin-7-yl)-4-methyl-5-(trifluoromethyl)pyridin-2-amine], the concentration for half-maximal inhibition (IC50) is less than 50 nM.

With `Nc1nc2c(-c3c(C(F)(F)F)cc4c(N5CC6CCC(C5)N6)nc(OCC5CCOCC5)nc4c3F)ccc(F)c2s1` [Example E144, 4-(4-(3,8-diazabicyclo[3.2.1]octan-3-yl)-8-fluoro-2-((tetrahydro-2H-pyran-4-yl)methoxy)-6-(trifluoromethyl)quinazolin-7-yl)-7-fluorobenzo[d]thiazol-2-amine], the IC50 is less than 50 nM.

For the molecule `Cc1cc(N)nc(-c2c(Cl)cc3c(N4CC5CCC(C4)N5)nc(OCC4(CO)CC(F)C4)nc3c2F)c1C(F)(F)F` (stereo not drawn) [Example E227, (1-(((7-(6-amino-4-methyl-3-(trifluoromethyl)pyridin-2-yl)-4-(3,8-diazabicyclo[3.2.1]octan-3-yl)-6-chloro-8-fluoroquinazolin-2-yl)oxy)methyl)-3-fluorocyclobutyl)methanol], the IC50 was less than 50 nM.

Turning to `CC12CC(COc3nc(N4CC5CCC(C4)N5)c4cc(C(F)(F)F)c(-c5ccc(F)c6sc(N)nc56)c(F)c4n3)(CO1)C2` [Example E174, 4-(4-(3,8-diazabicyclo[3.2.1]octan-3-yl)-8-fluoro-2-((1-methyl-2-oxabicyclo[2.1.1]hexan-4-yl)methoxy)-6-(trifluoromethyl)quinazolin-7-yl)-7-fluorobenzo[d] thiazol-2-amine], the IC50 was less than 50 nM.

Consider `Nc1nc2c(-c3c(C(F)(F)F)cc4c(N5CC6CCC(C5)N6)nc(OCC(O)CO)nc4c3F)ccc(F)c2s1` (stereo not drawn) [Example E141, 3-((7-(2-amino-7-fluorobenzo[d]thiazol-4-yl)-4-(3,8-diazabicyclo [3.2.1]octan-3-yl)-8-fluoro-6-(trifluoromethyl)quinazolin-2-yl)oxy)propane-1,2-diol], for which the IC50 was less than 50 nM.
